# Data taken from patent US11566057B2, “Long-acting co-agonists of the glucagon and GLP-1 receptors” (Merck Sharp & Dohme Corp., priority 2017, dated 2023).
# Numbered stars: 1 amine (or outer) side, 2 acyl side, 3 side chain; on linkers, the order of the positions; unused ones are H or OH. Square brackets hold non-standard residues; d marks the D form. Side chains are listed from the residue outwards. Peptide text beside a SMILES is read from it. * marks the point of attachment. Phe(4-CH2NH2) = NCc1ccc(C[C@H](N)C(=O)O)cc1; C18 diacid = O=C(O)CCCCCCCCCCCCCCCCC(=O)*; αMeW = C[C@](N)(Cc1c[nH]c2ccccc12)C(=O)O; γGlu = O=C(O)[C@H](CCC(=O)[*:2])N[*:1]; Met(O2) = CS(=O)(=O)CC[C@H](N)C(=O)O; αMeD = C[C@](N)(CC(=O)O)C(=O)O; AEEA = NCCOCCOCC(=O)O; Aib = CC(C)(N)C(=O)O
# Target: T1, human GCGR (Homo sapiens, UniProt P47871)
# T1 construct: expressed in transfected cells; growth medium holds Blasticidin and Hygromycin
# Experiment: cAMP activity assay at the Glucagon receptor (GCGR)
# Type: cell-based
# Conditions: for hGCGR/hGLP1R (hTone): ratio of GCGR EC50 to GLP1R EC50; for EC50: cells expressing human GCGR, cAMP production, buffer with or without 20% human serum (not stated which), read-out: GCGR EC50 human
# Experimental: Activity of the peptides at the Glucagon receptor (GCGR) and GLP-1 receptor (GLP1R) was measured in a cAMP activity assay.
# GCG/GLP-1 receptor co-agonist peptides were dissolved in 100% DMSO (dimethyl sulfoxide) and serially diluted to generate 10 point titrations. The peptide solutions were then transferred into 384-well assay plates (150 nL/well). Assay ready frozen cells expressing human GLP1R or human GCGR were suspended in growth media consisting of DMEM medium (GIBCO®), 10% FBS (GIBCO®), 1×NEAA(GIBCO®), 1×P/S (GIBCO®), 10 ug/mL Blasticidin (GIBCO®) and 200 μg/mL Hygromycin (GIBCO®). […] The cell suspensions (15 μL) were then added to the assay plates containing the peptide solutions (30,000 cells/well for human GCGR; 10,000 cells/well for human GLP1R). The cells were incubated for 1 hour at room temperature in the dark. Production of cAMP was determined using HitHunter™ cAMPXS kits (DiscoverX) following manufacturer protocol. The plates were incubated for overnight at room temperature in the dark. Luminescence was measured using an EnVision Multilabel plate reader (Perkin Elmer). Native GLP-1 and Glucagon (Bachem) are used as control peptides. EC50 values were calculated using uses a 4 parameter logistic fit based on the Levenberg-Marquardt algorithm.
# T1 sequence (P47871 26-477): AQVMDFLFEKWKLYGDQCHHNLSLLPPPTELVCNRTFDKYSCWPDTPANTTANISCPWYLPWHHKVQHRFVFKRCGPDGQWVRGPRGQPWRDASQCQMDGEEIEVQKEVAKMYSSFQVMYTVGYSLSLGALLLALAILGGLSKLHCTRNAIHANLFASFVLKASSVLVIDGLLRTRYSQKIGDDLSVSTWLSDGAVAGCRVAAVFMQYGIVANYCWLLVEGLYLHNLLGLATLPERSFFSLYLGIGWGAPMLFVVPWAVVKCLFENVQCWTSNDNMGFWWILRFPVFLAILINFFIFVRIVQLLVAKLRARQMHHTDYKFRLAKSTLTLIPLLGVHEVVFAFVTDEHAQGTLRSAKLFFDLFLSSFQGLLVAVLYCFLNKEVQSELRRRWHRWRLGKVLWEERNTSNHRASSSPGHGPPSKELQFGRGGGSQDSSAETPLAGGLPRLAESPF
Compound,hGCGR/hGLP1R (hTone),EC50 [pM]
CC(C)C[C@H](NC(=O)[C@H](Cc1ccc(O)cc1)NC(=O)[C@H](CCCCN)NC(=O)[C@H](CO)NC(=O)[C@H](Cc1ccc(O)cc1)NC(=O)[C@H](CC(=O)O)NC(=O)[C@H](CO)NC(=O)[C@@H](NC(=O)[C@H](Cc1ccccc1)NC(=O)[C@@H](NC(=O)CNC(=O)[C@H](CCC(N)=O)NC(=O)C(C)(C)NC(=O)[C@@H](N)Cc1c[nH]cn1)[C@@H](C)O)[C@@H](C)O)C(=O)N[C@@H](CC(=O)O)C(=O)N[C@@H](C)C(=O)N[C@@H](CCCNC(=N)N)C(=O)N[C@@H](C)C(=O)N[C@@H](C)C(=O)N[C@@H](CCC(N)=O)C(=O)N[C@@H](CC(=O)O)C(=O)N[C@@H](Cc1ccccc1)C(=O)N[C@H](C(=O)N[C@@H](Cc1ccc(CNC(=O)COCCOCCNC(=O)COCCOCCNC(=O)CC[C@H](NC(=O)CCCCCCCCCCCCCCCCC(=O)O)C(=O)O)cc1)C(=O)N[C@@H](Cc1c[nH]c2ccccc12)C(=O)N[C@@H](CC(C)C)C(=O)N[C@@H](CC(C)C)C(=O)N[C@@H](CC(=O)O)C(=O)N[C@H](C(N)=O)[C@@H](C)O)C(C)C [TP583] (H-H[Aib]QGTFTSDYSKYLDARAAQDFV[Phe(4-CH2NH2)]([AEEA-AEEA-γGlu-C18 diacid])WLLDT-NH2; N-terminus assumed),8.6,
CC(C)C[C@H](NC(=O)[C@H](Cc1c[nH]c2ccccc12)NC(=O)[C@H](CCC(N)=O)NC(=O)[C@@H](NC(=O)[C@H](Cc1ccccc1)NC(=O)[C@H](CC(=O)O)NC(=O)[C@H](CCC(N)=O)NC(=O)[C@H](C)NC(=O)[C@H](C)NC(=O)[C@H](CCCNC(=N)N)NC(=O)C(C)(C)NC(=O)[C@H](CC(=O)O)NC(=O)[C@H](CC(C)C)NC(=O)[C@H](Cc1ccc(O)cc1)NC(=O)[C@H](CCCCN)NC(=O)[C@H](CO)NC(=O)[C@H](Cc1ccc(O)cc1)NC(=O)[C@H](CC(=O)O)NC(=O)[C@H](CO)NC(=O)[C@@H](NC(=O)[C@H](Cc1ccccc1)NC(=O)[C@@H](NC(=O)CNC(=O)[C@H](CCC(N)=O)NC(=O)[C@@H](CO)NC(=O)[C@@H](N)Cc1c[nH]cn1)[C@@H](C)O)[C@@H](C)O)C(C)C)C(=O)N[C@@H](CC(C)C)C(=O)N[C@@H](CCCCNC(=O)COCCOCCNC(=O)COCCOCCNC(=O)CC[C@H](NC(=O)CCCCCCCCCCCCCCCCC(=O)O)C(=O)O)C(=O)N[C@H](C(=O)N[C@@H](CCCCN)C(=O)N[C@@H](CCC(N)=O)C(=O)O)[C@@H](C)O [TP685] (H-H[dS]QGTFTSDYSKYLD[Aib]RAAQDFVQWLLK([AEEA-AEEA-γGlu-C18 diacid])TKQ-OH; N-terminus and C-terminus assumed),7.9,
CC(C)C[C@H](NC(=O)[C@H](Cc1c[nH]c2ccccc12)NC(=O)[C@H](CCCCNC(=O)COCCOCCNC(=O)COCCOCCNC(=O)CC[C@H](NC(=O)CCCCCCCCCCCCCCCCC(=O)O)C(=O)O)NC(=O)[C@@H](NC(=O)[C@H](Cc1ccccc1)NC(=O)[C@H](CC(=O)O)NC(=O)[C@H](CCC(N)=O)NC(=O)[C@H](C)NC(=O)[C@H](C)NC(=O)[C@H](CCCNC(=N)N)NC(=O)C(C)(C)NC(=O)[C@H](CC(=O)O)NC(=O)[C@H](CC(C)C)NC(=O)[C@H](Cc1ccc(O)cc1)NC(=O)[C@H](CCCCN)NC(=O)[C@H](CO)NC(=O)[C@H](Cc1ccc(O)cc1)NC(=O)[C@H](CC(=O)O)NC(=O)[C@H](CO)NC(=O)[C@@H](NC(=O)[C@H](Cc1ccccc1)NC(=O)[C@@H](NC(=O)CNC(=O)[C@H](CCC(N)=O)NC(=O)C(C)(C)NC(=O)[C@@H](N)Cc1c[nH]cn1)[C@@H](C)O)[C@@H](C)O)C(C)C)C(=O)N[C@@H](CCS(C)(=O)=O)C(=O)N[C@@H](CC(=O)O)C(=O)N[C@H](C(N)=O)[C@@H](C)O [TP575] (H-H[Aib]QGTFTSDYSKYLD[Aib]RAAQDFVK([AEEA-AEEA-γGlu-C18 diacid])WL[Met(O2)]DT-NH2; N-terminus assumed),0.7,
CC(C)C[C@H](NC(=O)[C@H](Cc1ccc(O)cc1)NC(=O)[C@H](CCCCN)NC(=O)[C@H](CO)NC(=O)[C@H](Cc1ccc(O)cc1)NC(=O)[C@H](CC(=O)O)NC(=O)[C@H](CO)NC(=O)[C@@H](NC(=O)[C@H](Cc1ccccc1)NC(=O)[C@@H](NC(=O)CNC(=O)[C@H](CCC(N)=O)NC(=O)C(C)(C)NC(=O)[C@@H](N)Cc1c[nH]cn1)[C@@H](C)O)[C@@H](C)O)C(=O)N[C@@H](CC(=O)O)C(=O)N[C@@H](C)C(=O)N[C@@H](CCCNC(=N)N)C(=O)N[C@@H](C)C(=O)N[C@@H](C)C(=O)N[C@@H](CCCCNC(=O)COCCOCCNC(=O)COCCOCCNC(=O)CC[C@H](NC(=O)CCCCCCCCCCCCCCCCC(=O)O)C(=O)O)C(=O)N[C@@H](CC(=O)O)C(=O)N[C@@H](Cc1ccccc1)C(=O)N[C@H](C(=O)N[C@@H](CCC(N)=O)C(=O)N[C@@](C)(Cc1c[nH]c2ccccc12)C(=O)N[C@@H](CC(C)C)C(=O)N[C@@H](CCS(C)(=O)=O)C(=O)N[C@@](C)(CC(=O)O)C(=O)N[C@H](C(N)=O)[C@@H](C)O)C(C)C [TP632] (H-H[Aib]QGTFTSDYSKYLDARAAK([AEEA-AEEA-γGlu-C18 diacid])DFVQ[αMeW]L[Met(O2)][αMeD]T-NH2),0.9,

# More lines, now with the values ahead:
hGCGR/hGLP1R (hTone),EC50 [pM],Compound
0.6,860,CC(C)C[C@H](NC(=O)[C@H](Cc1ccc(O)cc1)NC(=O)[C@H](CCCCN)NC(=O)[C@H](CO)NC(=O)[C@H](Cc1ccc(O)cc1)NC(=O)[C@H](CC(=O)O)NC(=O)[C@H](CO)NC(=O)[C@@H](NC(=O)[C@H](Cc1ccccc1)NC(=O)[C@@H](NC(=O)CNC(=O)[C@H](CCC(N)=O)NC(=O)C(C)(C)NC(=O)[C@@H](N)Cc1c[nH]cn1)[C@@H](C)O)[C@@H](C)O)C(=O)N[C@@H](CC(=O)O)C(=O)N[C@@H](C)C(=O)N[C@@H](CCCNC(=N)N)C(=O)N[C@@H](C)C(=O)N[C@@H](C)C(=O)N[C@@H](CCCCNC(=O)COCCOCCNC(=O)CC[C@H](NC(=O)CCCCCCCCCCCCCCCCC(=O)O)C(=O)O)C(=O)N[C@@H](CC(=O)O)C(=O)N[C@@H](Cc1ccccc1)C(=O)N[C@H](C(=O)N[C@@H](CCC(N)=O)C(=O)N[C@@H](Cc1c[nH]c2ccccc12)C(=O)N[C@@H](CC(C)C)C(=O)N[C@@H](CCS(C)(=O)=O)C(=O)N[C@@](C)(CC(=O)O)C(=O)N[C@H](C(N)=O)[C@@H](C)O)C(C)C [TP628] (H-H[Aib]QGTFTSDYSKYLDARAAK([AEEA-γGlu-C18 diacid])DFVQWL[Met(O2)][αMeD]T-NH2; N-terminus assumed)
>6,> 5000,CC(C)C[C@H](NC(=O)[C@H](Cc1ccc(O)cc1)NC(=O)[C@H](CCCCN)NC(=O)[C@H](CO)NC(=O)[C@H](Cc1ccc(O)cc1)NC(=O)[C@H](CC(=O)O)NC(=O)[C@H](CO)NC(=O)[C@@H](NC(=O)[C@H](Cc1ccccc1)NC(=O)[C@@H](NC(=O)CNC(=O)[C@H](CCC(N)=O)NC(=O)C(C)(C)NC(=O)[C@@H](N)Cc1c[nH]cn1)[C@@H](C)O)[C@@H](C)O)C(=O)N[C@@H](CC(=O)O)C(=O)N[C@@H](CCC(=O)O)C(=O)N[C@@H](CCCNC(=N)N)C(=O)N[C@@H](C)C(=O)N[C@@H](C)C(=O)N[C@@H](CCCCNC(=O)COCCOCCNC(=O)COCCOCCNC(=O)CC[C@H](NC(=O)CCCCCCCCCCCCCCCCC(=O)O)C(=O)O)C(=O)N[C@@H](CC(=O)O)C(=O)N[C@@H](Cc1ccccc1)C(=O)N[C@H](C(=O)N[C@@H](CCC(N)=O)C(=O)N[C@@H](Cc1c[nH]c2ccccc12)C(=O)N[C@@H](CC(C)C)C(=O)N[C@@H](CCS(C)(=O)=O)C(=O)N[C@@](C)(CC(=O)O)C(=O)N[C@H](C(N)=O)[C@@H](C)O)C(C)C [TP613] (H-H[Aib]QGTFTSDYSKYLDERAAK([AEEA-AEEA-γGlu-C18 diacid])DFVQWL[Met(O2)][αMeD]T-NH2)
